Reference: ChEMBL document CHEMBL1201862, “PubChem BioAssay data set” (2004)
Active and inactive are the calls of the source.

What was measured:
[1] = target: T1, Ubiquitin-conjugating enzyme E2 N (Homo sapiens, UniProt P61088); format: functional;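 further: Dose-response confirmation in a TR-FRET assay detecting UBC13-driven polyubiquitin chain formation, inhibition measured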
T1 sequence (P61088 whole entry): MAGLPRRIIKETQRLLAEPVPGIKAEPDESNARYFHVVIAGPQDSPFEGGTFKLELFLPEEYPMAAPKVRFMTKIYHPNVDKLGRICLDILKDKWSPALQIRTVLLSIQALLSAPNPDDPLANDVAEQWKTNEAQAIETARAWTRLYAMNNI

[2] = target: T2, DNA repair protein RAD52 homolog (Homo sapiens, UniProt P43351); format: functional, biochemical
T2 sequence (P43351 whole entry): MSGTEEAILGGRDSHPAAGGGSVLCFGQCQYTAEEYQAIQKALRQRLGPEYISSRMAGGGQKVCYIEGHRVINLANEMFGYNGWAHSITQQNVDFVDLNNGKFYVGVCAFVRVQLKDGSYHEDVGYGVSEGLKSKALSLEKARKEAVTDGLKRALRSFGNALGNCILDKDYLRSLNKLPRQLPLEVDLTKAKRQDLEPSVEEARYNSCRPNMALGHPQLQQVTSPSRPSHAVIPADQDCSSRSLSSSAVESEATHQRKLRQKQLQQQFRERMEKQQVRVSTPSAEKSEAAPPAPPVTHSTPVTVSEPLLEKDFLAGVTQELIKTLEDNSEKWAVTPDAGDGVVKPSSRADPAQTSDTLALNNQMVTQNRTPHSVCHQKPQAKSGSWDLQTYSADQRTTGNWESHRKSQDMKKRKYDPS

[3] = microbe, parasite or virus in culture; format: functional; conditions: Mycobacterium tuberculosis
Streptococcus = test: GAS UMAA2166 growth inhibition – luminescence, BacTiterGlo, counter-screen for streptokinase expression inhibitor project, dose response (AID 1915); format: functional, organism-based;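 further: potency for reduction of bacterial viability or growth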
Streptokinase A = target: T3, Streptokinase A (Streptococcus pyogenes serotype M1, UniProt P10520); test: viability-normalized secreted streptokinase activity reduction – plasminogen activation absorbance, OD405, dose response (AID 1914); format: functional, Streptococcus pyogenes M1 GAS;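 further: secreted streptokinase activity via plasminogen activation per viability signal from cell pellet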
T3 sequence (P10520 whole entry): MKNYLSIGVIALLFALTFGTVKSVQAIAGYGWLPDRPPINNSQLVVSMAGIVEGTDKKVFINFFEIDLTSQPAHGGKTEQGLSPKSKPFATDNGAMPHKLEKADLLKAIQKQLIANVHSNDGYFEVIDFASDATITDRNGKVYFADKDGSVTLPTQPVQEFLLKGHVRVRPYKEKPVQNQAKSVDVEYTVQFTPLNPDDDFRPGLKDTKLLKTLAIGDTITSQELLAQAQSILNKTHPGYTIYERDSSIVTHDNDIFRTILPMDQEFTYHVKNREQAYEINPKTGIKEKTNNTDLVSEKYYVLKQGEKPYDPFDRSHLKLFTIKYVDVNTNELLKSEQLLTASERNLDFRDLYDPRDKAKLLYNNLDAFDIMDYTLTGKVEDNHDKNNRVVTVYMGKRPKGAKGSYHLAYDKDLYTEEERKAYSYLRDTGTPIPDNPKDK

Large T antigen = Large T antigen (Simian virus 40, UniProt P03070); format: functional, Betapolyomavirus macacae;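 further: Confirmatory-stage PubChem screen for compounds that inhibit SV40 T antigen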
Sequence of Large T antigen (P03070 whole entry): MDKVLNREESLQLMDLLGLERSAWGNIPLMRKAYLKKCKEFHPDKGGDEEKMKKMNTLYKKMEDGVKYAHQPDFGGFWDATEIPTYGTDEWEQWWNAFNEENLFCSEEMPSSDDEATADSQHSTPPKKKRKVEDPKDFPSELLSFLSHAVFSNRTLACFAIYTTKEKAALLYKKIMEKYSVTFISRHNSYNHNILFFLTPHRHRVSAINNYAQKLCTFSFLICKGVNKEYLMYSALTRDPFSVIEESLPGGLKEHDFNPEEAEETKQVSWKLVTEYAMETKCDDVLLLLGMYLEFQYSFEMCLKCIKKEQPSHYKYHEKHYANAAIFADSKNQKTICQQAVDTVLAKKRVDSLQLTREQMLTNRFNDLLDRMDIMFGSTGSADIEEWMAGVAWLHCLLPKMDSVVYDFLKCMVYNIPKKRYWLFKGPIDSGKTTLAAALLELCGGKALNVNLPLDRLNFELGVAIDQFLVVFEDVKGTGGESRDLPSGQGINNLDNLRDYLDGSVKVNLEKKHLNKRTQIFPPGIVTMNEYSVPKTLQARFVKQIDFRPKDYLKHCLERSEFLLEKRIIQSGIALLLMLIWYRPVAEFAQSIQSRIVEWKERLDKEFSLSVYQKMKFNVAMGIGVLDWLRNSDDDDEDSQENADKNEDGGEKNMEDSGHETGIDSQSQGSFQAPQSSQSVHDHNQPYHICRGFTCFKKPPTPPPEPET

INS1 = test: INS-1E survival protection against cytokine death – cell-based, luminescence, retest, dose response (AID 449756); format: functional; conditions: Rattus norvegicus, INS1;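 further: cell death triggered by IL-1 beta plus TNF-alpha plus IFN-gamma mixture; protective hits raise ATP signal compared with cytokine alone wells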
[4] = test system: Streptococcus sp. 'group A'; test: Streptococcus pyogenes SK(-)GAS viability under kanamycin – luminescence, BacTiterGlo, confirmation, counter-screen for streptokinase expression inhibitor project, dose response (AID 1900); format: functional, organism-based
Cytochrome P450 2C9 = Cytochrome P450 2C9 (Homo sapiens, UniProt P11712)
Sequence of Cytochrome P450 2C9 (P11712 whole entry): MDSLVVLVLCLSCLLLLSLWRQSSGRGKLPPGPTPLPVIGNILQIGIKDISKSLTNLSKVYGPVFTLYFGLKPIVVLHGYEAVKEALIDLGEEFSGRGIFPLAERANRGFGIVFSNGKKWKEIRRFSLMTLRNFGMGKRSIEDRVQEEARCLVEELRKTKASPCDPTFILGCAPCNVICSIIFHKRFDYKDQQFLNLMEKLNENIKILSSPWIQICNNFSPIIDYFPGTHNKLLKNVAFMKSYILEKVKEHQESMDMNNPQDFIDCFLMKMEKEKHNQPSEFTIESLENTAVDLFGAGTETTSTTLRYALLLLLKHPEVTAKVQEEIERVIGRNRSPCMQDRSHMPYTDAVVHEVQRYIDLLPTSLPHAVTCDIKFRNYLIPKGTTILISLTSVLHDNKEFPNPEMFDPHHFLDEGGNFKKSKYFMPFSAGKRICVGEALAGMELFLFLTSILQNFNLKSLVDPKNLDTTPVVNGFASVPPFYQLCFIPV

Cytochrome P450 2C19 = Cytochrome P450 2C19 (Homo sapiens, UniProt P33261); test: Cytochrome panel assay with activity outcomes. Panel member name: p450-cyp2c19 Compounds with AC50 equal or less than 10 uM are considered active; format: functional; conditions: read-out: AC50
Sequence of Cytochrome P450 2C19 (P33261 whole entry): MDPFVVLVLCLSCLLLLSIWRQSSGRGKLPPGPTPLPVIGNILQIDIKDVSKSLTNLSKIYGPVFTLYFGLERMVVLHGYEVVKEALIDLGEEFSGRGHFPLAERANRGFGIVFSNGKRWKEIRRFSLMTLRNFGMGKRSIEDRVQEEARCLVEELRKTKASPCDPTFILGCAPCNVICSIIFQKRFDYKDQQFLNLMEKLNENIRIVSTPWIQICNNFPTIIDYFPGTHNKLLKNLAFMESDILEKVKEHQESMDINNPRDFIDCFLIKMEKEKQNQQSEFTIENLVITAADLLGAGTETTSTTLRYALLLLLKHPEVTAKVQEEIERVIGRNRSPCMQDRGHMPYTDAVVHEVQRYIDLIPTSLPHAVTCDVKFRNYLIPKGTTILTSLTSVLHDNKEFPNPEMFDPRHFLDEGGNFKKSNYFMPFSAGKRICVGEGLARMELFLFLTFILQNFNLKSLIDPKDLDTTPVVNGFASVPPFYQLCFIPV

Cytochrome P450 1A2 = target: T4, Cytochrome P450 1A2 (Homo sapiens, UniProt P05177);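 further: PubChem cytochrome P450 panel assay, CYP1A2 panel member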
T4 sequence (P05177 whole entry): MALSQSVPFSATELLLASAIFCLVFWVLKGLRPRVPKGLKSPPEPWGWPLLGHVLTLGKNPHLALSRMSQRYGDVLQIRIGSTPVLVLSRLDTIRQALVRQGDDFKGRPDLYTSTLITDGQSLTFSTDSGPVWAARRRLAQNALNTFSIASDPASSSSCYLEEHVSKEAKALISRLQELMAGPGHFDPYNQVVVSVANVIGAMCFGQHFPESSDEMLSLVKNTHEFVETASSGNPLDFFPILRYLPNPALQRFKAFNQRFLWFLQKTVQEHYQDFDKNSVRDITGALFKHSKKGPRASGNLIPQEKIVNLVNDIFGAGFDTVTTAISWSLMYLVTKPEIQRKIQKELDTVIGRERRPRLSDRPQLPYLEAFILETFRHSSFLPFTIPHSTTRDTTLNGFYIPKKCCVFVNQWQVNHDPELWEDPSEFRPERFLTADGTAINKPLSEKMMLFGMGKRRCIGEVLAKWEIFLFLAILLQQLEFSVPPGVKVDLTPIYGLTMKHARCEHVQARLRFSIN

[5] = blockers of HIV-1 envelope-mediated cell-cell fusion – cherry-pick, dose response (AID 652057); format: functional, cell-based
[6] = HIV-1 AD8 envelope cell-cell fusion blockers – cherry-pick, dose response (AID 652062); format: functional, cell-based;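 further: luciferase signal from cell-cell fusion driven by HIV-1 clade B AD8 Env; potency is for inhibitors of fusion seen as a drop in luminescence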
[7] = off-target signal loss in HeLa-CEM21 co-culture – HeLa F-luc CTL cells, cherry-picked, counter-screen for HIV-1 Env fusion inhibitor project, dose response (AID 652040); format: functional, cell-based;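 further: potency for signal decrease marking cytotoxic or nonspecific inhibition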
[8] = blockers of HIV-1 ZM109 envelope-driven cell-cell fusion – HeLa effector, CEM target cells, luciferase, cherry-pick, dose response (AID 652058); format: functional, cell-based;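 further: luciferase signal from HIV-1 Env mediated cell-cell fusion of effector and target cells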
[9] = target: T5, Short transient receptor potential channel 4 (Mus musculus, UniProt Q9QUQ5); test: block of DAMGO-driven TRPC4 calcium entry – cell-based, HEK293 TRPC4/mu-opioid, Fluo-4 calcium, dose response (AID 434942); format: functional;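 further: potency of inhibitors blocking the TRPC4 calcium response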
T5 sequence (Q9QUQ5 whole entry): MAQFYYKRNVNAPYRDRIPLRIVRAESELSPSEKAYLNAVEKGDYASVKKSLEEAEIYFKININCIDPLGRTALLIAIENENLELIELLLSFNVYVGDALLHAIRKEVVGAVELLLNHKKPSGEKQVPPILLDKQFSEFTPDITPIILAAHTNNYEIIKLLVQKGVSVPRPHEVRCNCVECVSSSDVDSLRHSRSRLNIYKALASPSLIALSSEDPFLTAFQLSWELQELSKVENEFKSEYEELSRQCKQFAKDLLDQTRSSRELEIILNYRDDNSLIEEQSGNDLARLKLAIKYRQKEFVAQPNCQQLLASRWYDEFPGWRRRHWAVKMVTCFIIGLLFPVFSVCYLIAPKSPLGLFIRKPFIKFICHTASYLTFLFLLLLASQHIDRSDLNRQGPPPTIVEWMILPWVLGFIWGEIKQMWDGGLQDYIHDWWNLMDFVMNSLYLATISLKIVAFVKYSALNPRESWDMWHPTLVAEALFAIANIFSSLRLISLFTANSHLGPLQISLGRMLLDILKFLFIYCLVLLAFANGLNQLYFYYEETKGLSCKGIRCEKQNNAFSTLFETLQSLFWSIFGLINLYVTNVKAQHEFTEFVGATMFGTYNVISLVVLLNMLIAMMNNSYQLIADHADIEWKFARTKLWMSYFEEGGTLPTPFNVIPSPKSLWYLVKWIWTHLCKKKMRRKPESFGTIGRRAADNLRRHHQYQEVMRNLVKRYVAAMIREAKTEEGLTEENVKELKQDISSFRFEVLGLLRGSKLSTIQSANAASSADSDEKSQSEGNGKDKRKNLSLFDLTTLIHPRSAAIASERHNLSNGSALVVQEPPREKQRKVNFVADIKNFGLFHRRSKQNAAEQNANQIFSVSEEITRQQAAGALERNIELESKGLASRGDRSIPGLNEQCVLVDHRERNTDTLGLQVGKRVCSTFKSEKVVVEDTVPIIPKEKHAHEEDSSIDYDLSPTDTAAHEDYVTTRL

[10] = viability of uninfected HEp-2 cells – cell-based, HTS, cytotoxicity control for RSV inhibitor project, dose response (AID 2410); format: functional; conditions: human respiratory syncytial virus
Cytochrome P450 2D6 = Cytochrome P450 2D6 (Homo sapiens, UniProt P10635);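 further: CYP2D6 member of a cytochrome P450 panel assay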
Sequence of Cytochrome P450 2D6 (P10635 whole entry): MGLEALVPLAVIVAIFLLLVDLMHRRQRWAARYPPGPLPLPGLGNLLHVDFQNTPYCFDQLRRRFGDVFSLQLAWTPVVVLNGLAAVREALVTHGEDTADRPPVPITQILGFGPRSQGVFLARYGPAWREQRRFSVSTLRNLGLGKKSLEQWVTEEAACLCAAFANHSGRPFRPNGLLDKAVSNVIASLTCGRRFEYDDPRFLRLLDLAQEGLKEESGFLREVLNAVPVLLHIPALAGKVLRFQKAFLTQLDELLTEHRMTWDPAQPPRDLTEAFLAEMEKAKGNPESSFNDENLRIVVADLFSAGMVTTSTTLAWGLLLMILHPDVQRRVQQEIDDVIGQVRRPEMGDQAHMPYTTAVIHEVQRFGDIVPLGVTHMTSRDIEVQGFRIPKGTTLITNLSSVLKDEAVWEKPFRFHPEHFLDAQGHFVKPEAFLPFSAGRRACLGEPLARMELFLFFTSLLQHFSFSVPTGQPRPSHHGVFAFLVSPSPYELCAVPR

[11] = Luminescence Cell-Based Dose Confirmation HTS to Identify Activators of 5'UTR Stem-Loop Driven Alpha-Synuclein mRNA Translation in H4 Neuroglioblastoma Cells. [Related pubchem assays: 1829 (Project Summary), 1814 (Primary HTS)]; format: functional
Cytochrome P450 3A4 = Cytochrome P450 3A4 (Homo sapiens, UniProt P08684);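 further: CYP3A4 tested as one member of a cytochrome P450 panel screen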
Sequence of Cytochrome P450 3A4 (P08684 whole entry): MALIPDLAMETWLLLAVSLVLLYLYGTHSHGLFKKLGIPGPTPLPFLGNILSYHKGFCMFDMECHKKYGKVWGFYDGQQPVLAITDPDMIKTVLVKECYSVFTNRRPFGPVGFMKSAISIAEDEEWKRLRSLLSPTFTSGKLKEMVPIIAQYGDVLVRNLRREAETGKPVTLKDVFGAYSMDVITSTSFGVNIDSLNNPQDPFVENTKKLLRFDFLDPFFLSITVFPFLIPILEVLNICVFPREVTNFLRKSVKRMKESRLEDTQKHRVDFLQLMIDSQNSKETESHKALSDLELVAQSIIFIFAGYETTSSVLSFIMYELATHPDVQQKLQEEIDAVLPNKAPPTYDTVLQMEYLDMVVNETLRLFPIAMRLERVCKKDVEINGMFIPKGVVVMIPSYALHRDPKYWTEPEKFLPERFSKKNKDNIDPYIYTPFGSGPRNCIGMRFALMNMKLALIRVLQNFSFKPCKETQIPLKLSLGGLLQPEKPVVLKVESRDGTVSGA

H4 = test: Luminescence Cell-Based Dose Response HTS to Identify Activators of 5'UTR Stem-Loop Driven Prion Protein mRNA Translation in H4 Neuroglioblastoma Cells. [Related pubchem assays: 1829 (Project Summary), 1814 (Primary HTS)]; format: functional; conditions: Homo sapiens
[12] = Luminescence Cell-Based Dose Response HTS to Identify Activators of Luciferase Translation or Activity in H4 […] Cells. [Related pubchem assays: 1829 (Project Summary), 1814 (Primary HTS)]; format: functional
[13] = P. falciparum Dd2 growth inhibitors, dose response, SYBR Green, cherry-picked samples (AID 1159567); format: functional, cell-based
[14] = toxicity to human hepatoma HepG2 cells – cell-based, cherry-picked samples, cytotoxicity control, dose response (AID 1159577); format: functional
[15] = NIH3T3 cell viability loss – ATP luminescence, mouse fibroblasts, counter-screen, dose response (AID 2010); format: functional, cell-based;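 further: cells exposed to compound for about 90 hours before reading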
[16] = Trypanosoma cruzi growth suppression in host cells – NIH3T3 host cells, beta-gal luminescence, confirmation (AID 2044); format: functional, cell-based;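 further: intracellular parasites grown in NIH/3T3 mouse fibroblasts as host cells; luminescent beta-galactosidase reporter signal from transgenic T. cruzi replicating inside host cells; inhibitors lower the luminescence signal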

Structure (SMILES): Cc1cc(C)c2nc(NCCCNC(=S)NCCCN(C)C)c(C#N)cc2c1
- IC50 [1]: > 20 µM (inactive)
- AC50 [2]: 7.63 µM (active)

Structure (SMILES): COc1cnc(-c2ccccn2)nc1Oc1ccc(Cl)c2ccccc12
- CC50 [3]: 16.9 µM (active)
- EC50 (Streptococcus): 20.1 µM (inconclusive)
- EC50 (Streptokinase A): > 150 µM (not active)
- IC50 (Large T antigen): 7.48 µM (active)
- AC50 (INS1): 4.86 µM (active)
- EC50 [4]: 1.77 µM (active)

Structure (SMILES): Fc1cccc(Cl)c1CSc1nc[nH]n1
- AC50 (Cytochrome P450 2C9): inconclusive
- AC50 (Cytochrome P450 2C19): 39.8 µM (inconclusive)
- AC50 (Cytochrome P450 1A2): 10 µM (inconclusive)

Structure (SMILES): CN1[C@@H]2CC[C@H]1CC(O)C2 (stereo partly specified)
- AC50 (Cytochrome P450 2C9): inconclusive

Structure (SMILES): CCOc1ccc(NS(=O)(=O)c2ccc(C(=O)N(C)CCc3ccc(OC)c(OC)c3)cc2)cc1
- AC50 [5]: 3.4 µM (active)
- AC50 [6]: 5.92 µM (active)
- AC50 [7]: 4.78 µM (active)
- AC50 [8]: 2.58 µM (active)

Structure (SMILES): Cc1cccc(C)c1N1CCc2c[nH]nc21
- EC50 [9]: 7.5 µM (active)

Structure (SMILES): O=C(CSc1nc2nncc-2c(O)n1-c1ccccc1Br)NCc1ccccc1Cl
- EC50 [9]: 2.99 µM (active)

Structure (SMILES): CC(C)(C)CN1CCNC[C@H]1Cc1cccc2ccccc12
- IC50 [1]: > 20 µM (inactive)

Structure (SMILES): O=C(CCCCCN1C(=O)c2ccccc2C1=O)NCCc1nc2ccccc2[nH]1
- IC50 [1]: > 20 µM (inactive)

Structure (SMILES): COc1cc(-c2nc3oc4ccccc4c(=O)c3c(=O)n2Cc2ccco2)cc(OC)c1OC
- AC50 [5]: 2.38 µM (active)
- CC50 [10]: > 50 µM (active)
- AC50 [6]: 4.1 µM (active)
- AC50 [7]: 5.7 µM (active)
- AC50 [8]: 0.584 µM (active)

Structure (SMILES): O=C(C1CCN(S(=O)(=O)c2cccc3cccnc23)CC1)N1CCN(c2ccccn2)CC1
- AC50 (Cytochrome P450 2C9): inconclusive
- AC50 (Cytochrome P450 2C19): 7.08 µM (inconclusive)
- AC50 (Cytochrome P450 1A2): 20 µM (inconclusive)

Structure (SMILES): CCOc1ccccc1N(C(=O)CNC(=O)c1ccco1)C(C(=O)NC1CCCC1)c1cccnc1 (stereo unspecified)
- AC50 [5]: 7.37 µM (active)
- AC50 [6]: 3.91 µM (active)
- AC50 [7]: 9.65 µM (active)
- AC50 [8]: 6.15 µM (active)

Structure (SMILES): CCOc1ccc2nc(SCc3ccccc3C#N)sc2c1
- AC50 (Cytochrome P450 2D6): 17.8 µM (inconclusive)
- AC50 (Cytochrome P450 2C9): inconclusive
- EC50 [11]: 1.1 µM (active)
- AC50 (Cytochrome P450 3A4): 12.6 µM (inconclusive)
- EC50 (H4): 0.7 µM (active)
- EC50 [12]: 0.884 µM (active)

Structure (SMILES): CC(C)(CCc1nc2ccccc2[nH]1)C(=O)O
- AC50 (Cytochrome P450 2C9): inconclusive

Structure (SMILES): COc1ccc2c3c(n(C)c2c1)[C@H](CO)NCC31CCN(S(=O)(=O)c2cccc(F)c2)CC1
- AC50 [13]: 4.66 µM (active)
- AC50 [14]: > 39 µM (inactive)

Structure (SMILES): Cc1cc(-c2cn3ccccc3n2)c(C)n1-c1ccccc1
- EC50 [15]: > 30 µM (not active)
- EC50 [9]: 7.5 µM (active)
- EC50 [16]: 1.43 µM (active)

Structure (SMILES): O=C(C1CCCC1)N1CC(=O)N2[C@@H](CO)[C@H](c3ccc(C#CCc4ccccc4)cc3)[C@@H]2C1
- AC50 [13]: 2.47 µM (active)
- AC50 [14]: 8.92 µM (active)

Structure (SMILES): Cc1ccc(S(=O)(=O)O/N=C2/CCCc3occc32)cc1
- AC50 (Cytochrome P450 2C9): inconclusive
- AC50 (Cytochrome P450 2C19): 35.5 µM (inconclusive)

Structure (SMILES): COc1ccc2c(c1)[C@H]1[C@H](CO2)[C@H](c2ccccc2)[C@]2(C)C(=O)Nc3cc(OC)c(OC)cc3C(=O)N12
- AC50 [5]: 16.1 µM (active)
- AC50 [6]: 27.3 µM (active)
- AC50 [7]: 25.6 µM (active)
- AC50 [8]: 18.9 µM (active)

Structure (SMILES): O/N=C/c1ccccc1Oc1ccc(Cl)cc1
- EC50 [9]: 6.68 µM (active)

Structure (SMILES): C[C@H](CO)N1C[C@H](C)[C@H](CN(C)S(=O)(=O)c2ccc(F)cc2)Oc2ncc(/C=C/c3ccccc3)cc2C1=O
- AC50 [5]: 16.5 µM (active)
- AC50 [6]: 28.3 µM (active)
- AC50 [8]: 13.9 µM (active)
